Results from the RepoRT retention time repository (doi:10.1016/j.chroma.2022.462867).

Key:
Details in all cases: stereoisomer not certain
[1] = HILIC, Phenomenex Kinetex HILIC, 150 × 3 mm, 2.6 µm, 40 °C, 0.35 mL/min, estimated dead time 1.9 min; A: water + 0.1% formic acid, pH 3; B: methanol; gradient (min/%B) 0/95 20/0 25/0 30/95
[2] = RP, Phenomenex Kinetex PS C18, 150 × 3 mm, 2.6 µm, 40 °C, 0.35 mL/min, estimated dead time 1.9 min; A: water + 5 mM ammonium acetate, pH 5; B: methanol; gradient (min/%B) 0/5 20/100 25/100 30/5
[3] = RP, Phenomenex Kinetex EVO C18, 150 × 3 mm, 2.6 µm, 40 °C, 0.35 mL/min, estimated dead time 1.9 min; A: water + 5 mM ammonium formate, pH 5; B: acetonitrile; gradient (min/%B) 0/5 20/100 25/100 30/5
[4] = RP, Phenomenex Kinetex EVO C18, 150 × 3 mm, 2.6 µm, 40 °C, 0.35 mL/min, estimated dead time 1.9 min; A: water + 0.1% formic acid, pH 3; B: methanol; gradient (min/%B) 0/5 20/100 25/100 30/5

| SMILES | LC retention time [1] [min] | LC retention time [2] [min] | LC retention time [3] [min] | LC retention time [4] [min] |
| --- | --- | --- | --- | --- |
| CCN=C1NC(NC(C)C)=NC(SC)N1 (centres undefined) [Ametryn] | 2.32 | 15.1 | 11.3 | – |
| CCN=C1NC(NC(C)C)=NC(OC)N1 (centres undefined) [Atraton] | 2.68 | 13.7 | – | 8.8 |
| CC(C)(C)C(=O)C(Oc1ccc(Cl)cc1)n1ccnc1 (centres undefined) [Climbazole] | 2.73 | 16.2 | – | 11.5 |
| CN1C(=O)CCC1c1cccnc1 (centres undefined) [Cotinine] | 3.02 | 7.52 | 3.66 | – |
| O=C(NCC1CCCCN1)c1cc(OCC(F)(F)F)ccc1OCC(F)(F)F (centres undefined) [Flecainide] | 3.47 | 12.8 | 11.5 | 9.18 |
| NCC1(CC(=O)O)CCCCC1 [Gabapentin] | 3.33 | 5.49 | 2.95 | 4.04 |
| O=C(CCCN1CCC(O)(c2ccc(Cl)cc2)CC1)c1ccc(F)cc1 [Haloperidol] | 3.41 | 13.7 | 12.3 | 9.88 |
| C=CCOC(Cn1ccnc1)c1ccc(Cl)cc1Cl (centres undefined) [Imazalil] | 3.65 | 17.1 | 12.9 | 10.4 |
| CC(=O)N1CCN(c2ccc(OCC3COC(Cn4ccnc4)(c4ccc(Cl)cc4Cl)O3)cc2)CC1 (centres undefined) [Ketoconazole] | 4.05 | 17.6 | 12.2 | 11.2 |
| Cc1ccc(S(=O)(=O)N(C)N=O)cc1 [N-Methyl-N-nitrosotoluene-4-sulphonamide] | 2.38 | 13.9 | 9.88 | 10.3 |
| CN(C)CC(c1ccc(O)cc1)C1(O)CCCCC1 (centres undefined) [O-Desmethylvenlafaxine] | 4.13 | 9.2 | 6.48 | 5.49 |
| COC(=O)C1C2CC3c4[nH]c5cc(OC)ccc5c4CCN3CC2CC(OC(=O)c2cc(OC)c(OC)c(OC)c2)C1OC (centres undefined) [Reserpine] | 3.31 | 17.1 | 13.3 | 11.5 |
